For orientation: EC50 means the midpoint of the concentration-response curve.

This passage reports EC50 results from patent publication US9751874B2, “Hydroxy containing FXR (NR1H4) modulating compounds” (Gilead Sciences, Inc., priority 2014, dated 2017).

The target in assay [1] is T1, human FXR alpha ligand binding domain (Homo sapiens, UniProt Q96RI1).
T1 construct: made in house; host or cells: E. coli BL21(DE3), vector pDEST15
T1 sequence (Q96RI1 187-472 isoform Q96RI1-2): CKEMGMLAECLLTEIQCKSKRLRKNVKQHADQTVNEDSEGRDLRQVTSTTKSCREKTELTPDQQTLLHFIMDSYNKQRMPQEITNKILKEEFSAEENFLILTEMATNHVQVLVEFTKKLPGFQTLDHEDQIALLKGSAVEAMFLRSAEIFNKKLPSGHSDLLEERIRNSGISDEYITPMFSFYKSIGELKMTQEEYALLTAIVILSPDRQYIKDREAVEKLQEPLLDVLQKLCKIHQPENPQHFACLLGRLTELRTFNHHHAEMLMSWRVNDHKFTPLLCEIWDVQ
Kind of assay: FRET activity assay (ligand mediated cofactor peptide interaction, LANCE). Format: biochemical. The settings on record: GST-FXR-LBD / biotinylated SRC-1 peptide (676-700), read-out: F EC50. In a few lines: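 GST-tagged FXR LBD (aa 187–472, E. coli-expressed) at 20–60 ng/well with 200–600 nM biotinylated SRC-1 peptide (676–700), streptavidin-APC and Eu anti-GST in Tris pH 7.5 buffer, 1% DMSO, equilibrated 1 h dark at room temperature. TR-FRET read as 665/615 nm ratio; agonists raise signal above basal.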
In general terms: Time-resolved FRET reads energy transfer from a long-lived donor to a nearby acceptor.

In assay [2] the target is T2, FXR ligand binding domain (Homo sapiens, UniProt Q96RI1).
T2 construct: expressed in transfected cells; host or cells: HEK293 cells, transiently transfected with pCMV-BD-FXR-LBD, pFR-Luc and pRL-CMV
T2 sequence (Q96RI1 187-472 isoform Q96RI1-2): T1 sequence (Q96RI1 187-472 isoform Q96RI1-2)
Put plainly: Mammalian One Hybrid (M1H) assay, Gal4 promoter driven transactivation in HEK293 cells. Format: cell-based. The note with it: Gal4-FXR-LBD luciferase reporter, 16 h. In short, it runs like this: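 HEK293 cells were transiently co-transfected with Gal4-DBD fused to the human FXR LBD (aa 187-472, NM_005123), a 5×GAL4-site firefly luciferase reporter and CMV-Renilla control. Compounds were added 2-4 h post-transfection (vehicle ≤0.1%) in charcoal/dextran-stripped FBS medium for 16 h. Firefly and Renilla luciferase were read sequentially, in triplicate.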
(In general: A reporter such as luciferase makes a cellular process visible.)

With `O=C(O)c1cc(F)c2nc([C@]3(O)C[C@@H](OCc4c(-c5c(Cl)cccc5Cl)noc4C4CC4)C3)sc2c1` [Example 11-21, 2-((1s,3s)-3-((5-Cyclopropyl-3-(2,6-dichlorophenyl)isoxazol-4-yl)methoxy)-1-hydroxycyclobutyl)-4-fluorobenzo[d]thiazole-6-carboxylic acid], the EC50 in assay [1] came out at 23 nM; in assay [2], 310 nM.
For the compound `O[C@@]1(c2nc3ccc(Br)cc3s2)[C@@H]2CC[C@H]1C[C@H](OCc1c(-c3c(Cl)cccc3Cl)noc1C1CC1)C2` [Example 15-1, (1R,3s,5S,8r)-8-(6-Bromobenzo[d]thiazol-2-yl)-3-((5-cyclopropyl-3-(2,6-dichlorophenyl)isoxazol-4-yl)methoxy)bicyclo[3.2.1]octan-8-ol], the EC50 in assay [1] turned out to be 37 nM; in assay [2], 77 nM.
With `O=C(O)c1ccnc2cc([C@]3(O)CC[C@@H](OCc4c(-c5c(Cl)cccc5Cl)noc4C4CC4)CC3)ccc12` [Example 29, 7-((1s,4s)-4-((5-cyclopropyl-3-(2,6-dichlorophenyl)isoxazol-4-yl)methoxy)-1-hydroxycyclohexyl)quinoline-4-carboxylic acid], the EC50 amounted to 51 nM in assay [1] and 2600 nM in assay [2].
Turning to `O=C(O)c1ccc2nc([C@]3(O)CC[C@@H](OCc4c(-c5c(Cl)cccc5Cl)noc4C4CC4)CC3)sc2c1` [Example 11-30, 2-((1s,4s)-4-((5-Cyclopropyl-3-(2,6-dichlorophenyl)isoxazol-4-yl)methoxy)-1-hydroxycyclohexyl)benzo[d]thiazole-6-carboxylic acid], the values for the EC50 in assay [1] and in assay [2] were 64 nM and 67 nM, respectively.
Taken in the same sequence, the figures for `O=C(O)c1c(F)cc2nc([C@]3(O)CC[C@@H](OCc4c(-c5c(Cl)cccc5Cl)noc4C4CC4)CC3)sc2c1F` [Example 14-2, 2-((1s,4s)-4-((5-Cyclopropyl-3-(2,6-dichlorophenyl)isoxazol-4-yl)methoxy)-1-hydroxycyclohexyl)-5,7-difluorobenzo[d]thiazole-6-carboxylic acid] were 32 nM and 2700 nM.
Taken in the same sequence, the figures for `O=C(O)c1cc(F)c2nc([C@]3(O)[C@@H]4CC[C@H]3C[C@H](OCc3c(C5CC5)cnn3-c3c(Cl)cccc3Cl)C4)sc2c1` [Example 47, 2-((1R,3s,5S,8r)-3-((4-Cyclopropyl-1-(2,6-dichlorophenyl)-1H-pyrazol-5-yl)methoxy)-8-hydroxybicyclo[3.2.1]octan-8-yl)-4-fluorobenzo[d]thiazole-6-carboxylic acid] were 1.1 nM and 7.9 nM.
Taken in the same sequence, the figures for `O=C(O)c1ccc2nc([C@@]3(O)[C@@H]4CC5C[C@H]3C[C@](OCc3c(-c6c(Cl)cccc6Cl)noc3C3CC3)(C5)C4)sc2c1` [Example 11-35, 2-((1R,2r,3S,5s,7s)-5-((5-Cyclopropyl-3-(2,6-dichlorophenyl)isoxazol-4-yl)methoxy)-2-hydroxyadamantan-2-yl)benzo[d]thiazole-6-carboxylic acid] were 9.6 nM and 5.2 nM.
For `NC(=O)c1cc(F)c2nc([C@]3(O)CC[C@@H](OCc4c(-c5c(Cl)cncc5Cl)noc4C4CC4)CC3)sc2c1` [Example 18, 2-((1s,4s)-4-((5-Cyclopropyl-3-(3,5-dichloropyridin-4-yl)isoxazol-4-yl)methoxy)-1-hydroxycyclohexyl)-4-fluorobenzo[d]thiazole-6-carboxamide], the EC50 in assay [1] came out at 98 nM; in assay [2], 440 nM.
As to `O=C(O)c1ccc(C2(O)C[C@H]3CC(OCc4c(-c5c(Cl)cccc5Cl)noc4C4CC4)C[C@H]3C2)c(F)c1` (stereo partly drawn) [Example 11-47, 4-((3aR,6aS)-5-((5-Cyclopropyl-3-(2,6-dichlorophenyl)isoxazol-4-yl)methoxy)-2-hydroxyoctahydropentalen-2-yl)-3-fluorobenzoic acid], the results for the EC50 in assay [1] and in assay [2] were 12 nM and 99 nM, respectively.
For `O=C(O)c1ccc2sc([C@]3(O)CC[C@@H](OCc4c(-c5c(Cl)cccc5Cl)noc4C4CC4)CC3)nc2c1` [Example 4, 2-((1s,4s)-4-((5-Cyclopropyl-3-(2,6-dichlorophenyl)isoxazol-4-yl)methoxy)-1-hydroxycyclohexyl)benzo[d]thiazole-5-carboxylic acid], in that order: 21 nM and 100 nM.
Taken in the same sequence, the figures for `O=C(NCCN1CCOCC1)c1cc(F)c2nc([C@]3(O)CC[C@@H](OCc4c(-c5c(Cl)cncc5Cl)noc4C4CC4)CC3)sc2c1` [Example 17, 2-((1s,4s)-4-((5-Cyclopropyl-3-(3,5-dichloropyridin-4-yl)isoxazol-4-yl)methoxy)-1-hydroxycyclohexyl)-4-fluoro-N-(2-morpholinoethyl)benzo[d]thiazole-6-carboxamide] were 150 nM and 670 nM.
For `O=C(O)c1cc(F)c2nc([C@]3(O)[C@@H]4CC[C@H]3CC(OCc3c(-c5c(Cl)cccc5Cl)noc3C3CC3)(C(F)F)C4)sc2c1` (single isomer, unassigned) [Example 11-40], in that order: 420 nM and 290 nM.
On to `O=C(O)c1cc(F)c2nc([C@]3(O)CC4CC3CC4OCc3c(-c4c(Cl)cccc4Cl)noc3C3CC3)sc2c1` (single isomer, unassigned) [Example 11-48], for which the EC50 amounted to 46 nM in assay [1] and 190 nM in assay [2].
Taken in the same sequence, the figures for `O=C(O)c1ccc2nc([C@]3(O)CC[C@@H](OCc4c(-c5c(Cl)cccc5Cl)noc4C4CC4)CC3)sc2c1F` [Example 14-1, 2-((1s,4s)-4-((5-Cyclopropyl-3-(2,6-dichlorophenyl)isoxazol-4-yl)methoxy)-1-hydroxycyclohexyl)-7-fluorobenzo[d]thiazole-6-carboxylic acid] were 25 nM and 550 nM.
With `OC1(c2nc3ccccc3s2)C2CC3CC1CC(OCc1c(-c4c(Cl)cccc4Cl)noc1C1CC1)(C3)C2` [Example 24a, (1R,2r,3S,5s,7s)-2-(Benzo[d]thiazol-2-yl)-5-((5-cyclopropyl-3-(2,6-dichlorophenyl)isoxazol-4-yl)methoxy)adamantan-2-ol], the values for the EC50 in assay [1] and in assay [2] were 49 nM and 140 nM, respectively.
Regarding `O=C(O)c1ccc2nc([C@]3(O)[C@@H]4CC[C@H]3C[C@@H](OCc3c(-c5c(Cl)cccc5Cl)noc3C3CC3)C4)sc2c1` [Example 11-23, 2-((1R,3r,5S,8r)-3-((5-Cyclopropyl-3-(2,6-dichlorophenyl)isoxazol-4-yl)methoxy)-8-hydroxybicyclo[3.2.1]octan-8-yl)benzo[d]thiazole-6-carboxylic acid], the EC50 came out at 41 nM in assay [1] and 18 nM in assay [2].
Regarding `O=C(O)c1ccc2nc(C3(O)CC4(CC(OCc5c(-c6c(Cl)cccc6Cl)noc5C5CC5)C4)C3)sc2c1` (single isomer, unassigned) [Example 11-4b, 2-(6-((5-Cyclopropyl-3-(2,6-dichlorophenyl)isoxazol-4-yl)methoxy)-2-hydroxyspiro[3.3]heptan-2-yl)benzo[d]thiazole-6-carboxylic acid], the EC50 turned out to be 120 nM in assay [1] and 380 nM in assay [2].
As to `O=C(O)c1cc(F)c2nc([C@]3(O)[C@@H]4CC[C@H]3C[C@H](OCc3c(-c5c(Cl)cccc5Cl)noc3C3CC3)C4)sc2c1` [Example 11-27, 2-((1R,3s,5S,8r)-3-((5-cyclopropyl-3-(2,6-dichlorophenyl)isoxazol-4-yl)methoxy)-8-hydroxybicyclo[3.2.1]octan-8-yl)-4-fluorobenzo[d]thiazole-6-carboxylic acid], the EC50 in assay [1] was 3.8 nM; in assay [2], 1 nM.
`O=C(O)c1ccc2nc([C@]3(O)[C@@H]4CC[C@H]3C[C@H](OCc3c(-c5c(Cl)cccc5Cl)noc3C3CC3)C4)sc2c1` [Example 11-22, 2-((1R,3s,5S,8r)-3-((5-cyclopropyl-3-(2,6-dichlorophenyl)isoxazol-4-yl)methoxy)-8-hydroxybicyclo[3.2.1]octan-8-yl)benzo[d]thiazole-6-carboxylic acid]: the values for the EC50 in assay [1] and in assay [2] were 3.7 nM and 1.6 nM, respectively.
For `O=C(O)c1cc(F)c2nc([C@]3(O)[C@@H]4CC[C@H]3C[C@H](OCc3c(-c5c(Cl)cncc5Cl)noc3C3CC3)C4)sc2c1` [Example 11-29, 2-((1R,3s,5S,8r)-3-((5-cyclopropyl-3-(3,5-dichloropyridin-4-yl)isoxazol-4-yl)methoxy)-8-hydroxybicyclo[3.2.1]octan-8-yl)-4-fluorobenzo[d]thiazole-6-carboxylic acid], in that order: 4.3 nM and 5.8 nM.
Take `O=C(O)c1ccc2nc([C@]3(O)[C@@H]4CC5C[C@H]3C[C@](OCc3c(-c6c(Cl)cccc6Cl)noc3C3CC3)(C5)C4)sc2c1` [Example 11-36, 2-((1R,2s,3S,5s,7s)-5-((5-Cyclopropyl-3-(2,6-dichlorophenyl)isoxazol-4-yl)methoxy)-2-hydroxyadamantan-2-yl)benzo[d]thiazole-6-carboxylic acid]: the EC50 was determined as 1100 nM in assay [1] and 930 nM in assay [2].
